Results: ChEMBL document CHEMBL6182876, “Design, synthesis and preliminary structure-activity relationship of 2-iminothiazolidine-4-one derivatives against Schistosoma japonicum in vitro and in vivo” (Eur J Med Chem, 2025)

What was measured:
Schistosoma japonicum [1] = experiment: Anti-schistosomal activity against adult Schistosoma japonicum assessed as worm mortality at 100 uM measured at 24 hrs relative to control; type: functional
Schistosoma japonicum [2] = experiment: Anti-schistosomal activity against adult Schistosoma japonicum assessed as worm mortality at 100 uM measured at 8 hrs relative to control; type: functional
Schistosoma japonicum [3] = experiment: Anti-schistosomal activity against adult Schistosoma japonicum assessed as worm mortality at 100 uM measured at 72 hrs relative to control; type: functional
Schistosoma japonicum [4] = experiment: Anti-schistosomal activity against adult Schistosoma japonicum assessed as worm mortality at 100 uM measured at 12 hrs relative to control; type: functional
Schistosoma japonicum [5] = experiment: Anti-schistosomal activity against adult Schistosoma japonicum assessed as worm mortality at 100 uM measured at 4 hrs relative to control; type: functional
Schistosoma japonicum [6] = experiment: Anti-schistosomal activity against adult Schistosoma japonicum assessed as worm mortality at 100 uM measured at 48 hrs relative to control; type: functional
Schistosoma japonicum [7] = experiment: Anti-schistosomal activity against adult Schistosoma japonicum measured at 72 hrs; type: functional, organism-based

| SMILES | mortality at 100 µM (Schistosoma japonicum [1]) | mortality at 100 µM (Schistosoma japonicum [2]) | mortality at 100 µM (Schistosoma japonicum [3]) | mortality at 100 µM (Schistosoma japonicum [4]) | mortality at 100 µM (Schistosoma japonicum [5]) | mortality at 100 µM (Schistosoma japonicum [6]) | IC50 (Schistosoma japonicum [7]) |
| --- | --- | --- | --- | --- | --- | --- | --- |
| CCOC(=O)/C=C1\S/C(=N\c2cccc(Cl)c2)N(CCCN2CCN(C)CC2)C1=O | 100% | 30% | 100% | 100% | 10% | 100% | 41.2 µM |
| CN1CCN(CCCN2C(=O)/C(=C/c3ccccc3)S/C2=N\c2ccc(C(F)(F)F)cc2)CC1 | 10% | 0% | 30% | 0% | 0% | 20% |  |
| CCOC(=O)/C=C1\S/C(=N\c2ccccc2)N(CCCN2CCCC2)C1=O | 20% | 0% | 100% | 0% | 0% | 30% | 77.9 µM |
| CCOC(=O)/C=C1\S/C(=N\c2ccccc2)N(CCN(CC)CC)C1=O | 10% | 0% | 30% | 0% | 0% | 10% | > 100 µM |
| Cc1cc(/C=C2\S/C(=N\c3ccc(C(F)(F)F)cc3)N(CCCN3CCN(C)CC3)C2=O)ccc1F | 10% | 0% | 30% | 0% | 0% | 20% |  |
| CCOC(=O)/C=C1\S/C(=N\c2ccccc2C(F)(F)F)N(CCCN2CCN(C)CC2)C1=O | 100% | 40% | 100% | 100% | 0% | 100% | 33.2 µM |
| CCOC(=O)/C=C1\S/C(=N\c2ccc(OC)cc2)N(CCCN2CCN(C)CC2)C1=O | 0% | 0% | 30% | 0% | 0% | 10% | 95.7 µM |
| Cc1ccc(/C=C2\S/C(=N\c3ccc(C(F)(F)F)cc3)N(CCCN3CCN(C)CC3)C2=O)cc1 | 30% | 0% | 100% | 0% | 0% | 70% |  |
| CCOC(=O)/C=C1\S/C(=N\c2ccccc2)N(CCCN2CCN(C)CC2)C1=O | 10% | 0% | 100% | 0% | 0% | 100% | 75.6 µM |
| CCOC(=O)/C=C1\S/C(=N\c2ccc(Cl)cc2)N(CCCN2CCN(C)CC2)C1=O | 100% | 40% | 100% | 80% | 0% | 100% | 41.8 µM |
| CCOC(=O)/C=C1\S/C(=N\c2ccc(Cl)c(Cl)c2)N(CCCN2CCN(C)CC2)C1=O | 100% | 40% | 100% | 100% | 0% | 100% | 39.3 µM |
| Cc1cccc(/C=C2\S/C(=N\c3ccc(C(F)(F)F)cc3)N(CCCN3CCN(C)CC3)C2=O)c1 | 20% | 0% | 100% | 0% | 0% | 90% |  |
| CCOC(=O)/C=C1\S/C(=N\c2ccc([N+](=O)[O-])cc2)N(CCCN2CCN(C)CC2)C1=O | 10% | 0% | 100% | 0% | 0% | 100% | 72 µM |
| CN1CCN(CCCN2C(=O)/C(=C/c3ccccc3Cl)S/C2=N\c2ccc(C(F)(F)F)cc2)CC1 | 0% | 0% | 40% | 0% | 0% | 0% |  |
| CN1CCN(CCCN2C(=O)/C(=C/c3ccc(Cl)cc3)S/C2=N\c2ccc(C(F)(F)F)cc2)CC1 | 100% | 0% | 100% | 0% | 0% | 100% |  |
| CN1CCN(CCCN2C(=O)/C(=C/c3cccc(F)c3)S/C2=N\c2ccc(C(F)(F)F)cc2)CC1 | 0% | 0% | 30% | 0% | 0% | 30% |  |
| Cc1ccccc1/C=C1\S/C(=N\c2ccc(C(F)(F)F)cc2)N(CCCN2CCN(C)CC2)C1=O | 0% | 0% | 30% | 0% | 0% | 10% |  |

| SMILES | mortality at 100 µM (Schistosoma japonicum [1]) | mortality at 100 µM (Schistosoma japonicum [2]) | mortality at 100 µM (Schistosoma japonicum [3]) | mortality at 100 µM (Schistosoma japonicum [4]) | mortality at 100 µM (Schistosoma japonicum [5]) | mortality at 100 µM (Schistosoma japonicum [6]) | IC50 (Schistosoma japonicum [7]) |
| --- | --- | --- | --- | --- | --- | --- | --- |
| CN1CCN(CCCN2C(=O)/C(=C/c3cccc(Cl)c3)S/C2=N\c2ccc(C(F)(F)F)cc2)CC1 | 100% | 40% | 100% | 70% | 20% | 100% |  |
| CCOC(=O)/C=C1\S/C(=N\c2cccc(Br)c2)N(CCCN2CCN(C)CC2)C1=O | 100% | 30% | 100% | 80% | 0% | 100% | 35.1 µM |
| COc1ccc(/C=C2\S/C(=N\c3ccc(C(F)(F)F)cc3)N(CCCN3CCN(C)CC3)C2=O)cc1 | 0% | 0% | 60% | 0% | 0% | 20% |  |
| CCOC(=O)/C=C1\S/C(=N\c2ccccc2)N(CCN2CCOCC2)C1=O | 0% | 0% | 60% | 0% | 0% | 40% | 93.1 µM |
| CN1CCN(CCCN2C(=O)CS/C2=N\c2ccc(C(F)(F)F)cc2)CC1 | 0% | 0% | 10% | 0% | 0% | 0% |  |
| CCOC(=O)/C=C1\S/C(=N\c2ccc(CC)cc2)N(CCCN2CCN(C)CC2)C1=O | 60% | 0% | 100% | 10% | 0% | 100% |  |
| CN1CCN(CCCN2C(=O)/C(=C/c3ccc([N+](=O)[O-])cc3)S/C2=N\c2ccc(C(F)(F)F)cc2)CC1 | 0% | 0% | 70% | 0% | 0% | 30% |  |
| CCOC(=O)/C=C1\S/C(=N\c2ccccc2)N(CCN2CCC(Cc3ccccc3)CC2)C1=O | 0% | 0% | 70% | 0% | 0% | 20% | 91.3 µM |
| CCOC(=O)/C=C1\S/C(=N\c2ccccc2)N(CCN2CCCCC2)C1=O | 0% | 0% | 50% | 0% | 0% | 10% | > 100 µM |
| CCOC(=O)/C=C1\S/C(=N\c2ccccc2)N(CCN(C)C)C1=O | 0% | 0% | 10% | 0% | 0% | 0% | > 100 µM |
| CN1CCN(CCCN2C(=O)/C(=C/c3ccccc3F)S/C2=N\c2ccc(C(F)(F)F)cc2)CC1 | 0% | 0% | 20% | 0% | 0% | 0% |  |
| CCOC(=O)/C=C1\S/C(=N\c2ccccc2Br)N(CCCN2CCN(C)CC2)C1=O | 100% | 20% | 100% | 60% | 0% | 100% | 30.9 µM |
| CCOC(=O)/C=C1\S/C(=N\c2cc(F)ccc2F)N(CCCN2CCN(C)CC2)C1=O | 30% | 0% | 100% | 0% | 0% | 100% | 31.2 µM |
| CCOC(=O)/C=C1\S/C(=N\C)N(CCCN2CCN(C)CC2)C1=O | 0% | 0% | 0% | 0% | 0% | 0% | > 100 µM |
| CCOC(=O)/C=C1\S/C(=N\c2ccc(F)cc2)N(CCCN2CCN(C)CC2)C1=O | 30% | 0% | 100% | 0% | 0% | 80% | 42.8 µM |
| COc1cccc(/C=C2\S/C(=N\c3ccc(C(F)(F)F)cc3)N(CCCN3CCN(C)CC3)C2=O)c1 | 70% | 0% | 100% | 20% | 0% | 100% |  |
| COc1ccccc1/C=C1\S/C(=N\c2ccc(C(F)(F)F)cc2)N(CCCN2CCN(C)CC2)C1=O | 0% | 0% | 70% | 0% | 0% | 10% |  |
